Data published in US20260137634A1, “USE OF STILBENE DERIVATIVE IN PREVENTION AND/OR TREATMENT OF ULCERS” (THEDERMA SHANGHAI CO., LTD., priority 2022, published 2026).

Assays:
[1] = system: SD male rat oral ulcer model; assay: Efficacy in SD male rat oral ulcer model after 7 days of treatment; type: in vivo; settings: SD male rats; for Ulcer healing rate / Ulcer area Day 7: 1 mg/rat; for Ulcer healing rate: 2 times daily for 7 days; for Ulcer healing rate / Ulcer area Day 7 / Ulcer area Day 0: n = 6; for Ulcer area Day 7: 50 μL applied to ulcer 2 times daily for 7 days; for Ulcer area Day 0: glacial acetic acid oral ulcer, Day 0 (baseline)
Method: Eighteen SD male rats were randomly divided into 3 groups, i.e., a model group (propylene glycol vehicle group), a 2% indigo group (1 mg/rat), and a 2% tapinarof group (1 mg/rat). Oral ulcer modeling: a 1 cm×0.6 cm filter paper (soaked into a 60% glacial acetic acid solution) was placed on the labial mucosa of the alveolar bone beneath the lower incisor in a rat and maintained for 1 min. Administration: after the rats were anesthetized, 50 μL of the solution in each group was pipetted by using a pipettor and evenly applied to the ulcer part 2 times daily for 7 consecutive days. After each group was treated with glacial acetic acid, symptoms such as pseudomembrane covering, central depression, red and swollen edges, significant pain response after stimulation, etc. appeared, and after the administration was completed, various symptoms were relieved.

[2] = system: DB/DB male mouse diabetic foot ulcer model; assay: Efficacy in DB/DB male mouse diabetic foot ulcer model after 10 days of treatment; type: in vivo; settings: DB/DB male mice; for Ulcer healing rate / Ulcer area Day 10: 1 mg/mouse; for Ulcer healing rate: 2 times daily for 10 days, ** p<0.05 vs vehicle; for Ulcer healing rate / Ulcer area Day 10 / Ulcer area Day 0: n = 6; for Ulcer area Day 10: 50 μL applied to ulcer 2 times daily for 10 days; for Ulcer area Day 0: foot ulcer, Day 0 (baseline)
Method: Eighteen DB/DB male mice were randomly divided into 3 groups, i.e., a model group (propylene glycol vehicle group), a 2% indigo group (1 mg/mouse), and a 2% tapinarof group (1 mg/mouse).
Foot ulcer modeling: after the mouse was anesthetized, the foot was disinfected; a 4 mm×5 mm rectangular region was marked on the dorsum of the foot; and the skin and fascia were removed within the region.
Administration: on the dorsum of the foot of the mouse, 50 μL of the solution in each group was pipetted by using a pipettor and evenly applied to the ulcer part 2 times daily for 10 consecutive days, and the length and the width of the ulcer were recorded.
Statistical analysis was performed by using one-way ANOVA. As compared to the vehicle group, ** indicates p<0.05.

Row | Structure (SMILES) | Ulcer healing rate [1] | Ulcer area Day 7 [1] | Ulcer area Day 0 [1] | Ulcer healing rate [2] | Ulcer area Day 10 [2] | Ulcer area Day 0 [2] | therapeutic effect in rat oral ulcer model (in words) ([1]; 7 days of treatment) | effect in mouse diabetic foot ulcer model (in words) ([2]; after 10 days of administration)
1 | O=C1/C(=C2\Nc3ccccc3C2=O)Nc2ccccc21 [2% indigo, indigo, reference compound] | 52% | 22.09 mm^2 | 46.33 mm^2 | 26% | 13.30 mm^2 | 17.99 mm^2 | – | –
2 | CC(C)c1c(O)cc(/C=C/c2ccccc2)cc1O [2% tapinarof, tapinarof] | 58% | 19.70 mm^2 | 46.90 mm^2 | 39%** | 10.93 mm^2 | 18.19 mm^2 | good therapeutic effect, and its efficacy was superior to that of 2% indigo | significant inhibitory effect, which was superior to that of the 2% indigo group
